Measured values as given in US12052991B2, “Substituted pyridinyloxybenzenes and salts thereof and use thereof as herbicidal agents” (Bayer Aktiengesellschaft, priority 2018, dated 2024).

Legend:
Assay type in all cases: in vivo
[1] = test system: harmful plants ABUTH, AMARE, ECHCG, LOLRI, MATIN, POAAN, SETVI, STEME, ALOMY, DIGSA, KCHSC and VERPE; experiment: Herbicidal post-emergence action, summary of Tables B1-B12; conditions: application rate of 1280 or 320 g of active ingredient per hectare; summary in words
Experimental: (§1) Seeds of mono- and dicotyledonous weed plants were placed in plastic pots in sandy loam soil (doubly sown with in each case one species of mono- or dicotyledonous weed plants per pot), covered with soil and cultivated in a greenhouse under controlled growth conditions. 2 to 3 weeks after sowing, the test plants were treated at the one-leaf stage. The compounds of the invention, formulated in the form of wettable powders (WP) or as emulsion concentrates (EC), were applied onto the green parts of the plants as aqueous suspension or emulsion with addition of 0.5% additive at a water application rate of 600 liters per hectare (converted). After the test plants had been kept in the greenhouse under optimum growth conditions for about 3 weeks, the activity of the preparations was rated visually in comparison to untreated controls.
(§2) For example, 100% activity=the plants have died, 0% activity=like control plants.
Tables B1 to B12 below show the effects of selected compounds of the general formula (I) according to Table 1 on various harmful plants and an application rate corresponding to 1280 or 320 g/ha, which were obtained by the experimental procedure mentioned above.
As the results of Tables B1-B12 show, compounds no.

[2] = test system: harmful plants ABUTH, AMARE, ECHCG, LOLRI, MATIN, POAAN, SETVI, STEME, ALOMY, DIGSA, KCHSC and VERPE; experiment: Herbicidal pre-emergence action (test C), summary of Tables C1-C12; conditions: application rate of 1280 or 320 g of active ingredient per hectare; summary in words
Description: (§3) Seeds of mono- and dicotyledonous weed plants were placed in plastic pots in sandy loam soil (doubly sown with one species each of mono- or dicotyledonous weed plants per pot) and covered with soil. The compounds of the invention, formulated in the form of wettable powders (WP) or as emulsion concentrates (EC), were then applied onto the surface of the covering soil as aqueous suspension or emulsion with addition of 0.5% additive at a water application rate of 600 liters per hectare (converted). After the treatment, the pots were placed in a greenhouse and kept under good growth conditions for the test plants. After about 3 weeks, the effect of the preparations was scored visually in comparison with untreated controls as percentages.
as §2
Tables C1 to C12 below show the effects of selected compounds of the general formula (I) according to Table 1 on various harmful plants and an application rate corresponding to 1280 or 320 g/ha, which were obtained by the experimental procedure mentioned above.
As the results of Tables C1-C12 show, compounds no.

[3] = test system: Alopecurus myosuroides (ALOMY); experiment: Herbicidal pre-emergence action, test C (Table C9); conditions: dosage 1280 g/ha; visual scoring after about 3 weeks; 100% = plants have died, 0% = like control plants
Description: as §3, with “percentages. For example, 100% activity=the plants have died, 0% activity=like control plants. Tables C1 to C12 below show the effects of selected compounds of the general formula (I) according to Table 1 on various harmful plants and an application rate corresponding to 1280 or 320 g/ha, which were obtained by the experimental procedure mentioned above.” for “percentages.”

[4] = test system: Digitaria sanguinalis (DIGSA); experiment: Herbicidal pre-emergence action, test C (Table C10); conditions: dosage 1280 g/ha; visual scoring after about 3 weeks; 100% = plants have died, 0% = like control plants
Description: as §3, with “percentages. For example, 100% activity=the plants have died, 0% activity=like control plants. Tables C1 to C12 below show the effects of selected compounds of the general formula (I) according to Table 1 on various harmful plants and an application rate corresponding to 1280 or 320 g/ha, which were obtained by the experimental procedure mentioned above.” for “percentages.”

[5] = test system: Amaranthus retroflexus (AMARE); experiment: Herbicidal pre-emergence action, test C (Table C6); conditions: dosage 1280 g/ha; visual scoring after about 3 weeks; 100% = plants have died, 0% = like control plants
Description: as §3, with “percentages. For example, 100% activity=the plants have died, 0% activity=like control plants. Tables C1 to C12 below show the effects of selected compounds of the general formula (I) according to Table 1 on various harmful plants and an application rate corresponding to 1280 or 320 g/ha, which were obtained by the experimental procedure mentioned above.” for “percentages.”

Veronica persica (VERPE) [6] = experiment: Herbicidal pre-emergence action, test C (Table C12); conditions: dosage 1280 g/ha, visual scoring vs untreated controls
Description: as §3, with “percentages. For example, 100% activity=the plants have died, 0% activity=like control plants. Tables C1 to C12 below show the effects of selected compounds of the general formula (I) according to Table 1 on various harmful plants and an application rate corresponding to 1280 or 320 g/ha, which were obtained by the experimental procedure mentioned above.” for “percentages.”

Poa annua (POAAN) [7] = experiment: Herbicidal post-emergence action (Table B3); conditions: rated visually after about 3 weeks, 100% = plants have died, 0% = like control plants
Experimental: as §1, with “controls. For example, 100% activity=the plants have died, 0% activity=like control plants. Tables B1 to B12 below show the effects of selected compounds of the general formula (I) according to Table 1 on various harmful plants and an application rate corresponding to 1280 or 320 g/ha, which were obtained by the experimental procedure mentioned above.” for “controls.”

Stellaria media (STEME) [8] = experiment: Herbicidal post-emergence action (Table B8); conditions: visual rating about 3 weeks after treatment, 100% = plants have died, 0% = like control plants
Experimental: as §1, with “controls. For example, 100% activity=the plants have died, 0% activity=like control plants. Tables B1 to B12 below show the effects of selected compounds of the general formula (I) according to Table 1 on various harmful plants and an application rate corresponding to 1280 or 320 g/ha, which were obtained by the experimental procedure mentioned above.” for “controls.”

[9] = test system: Abutilon theophrasti (ABUTH); experiment: Herbicidal post-emergence action (Table B5); conditions: 1280 g/ha; rated visually after about 3 weeks; 100% = plants have died, 0% = like control plants
Experimental: as §1, with “controls. For example, 100% activity=the plants have died, 0% activity=like control plants. Tables B1 to B12 below show the effects of selected compounds of the general formula (I) according to Table 1 on various harmful plants and an application rate corresponding to 1280 or 320 g/ha, which were obtained by the experimental procedure mentioned above.” for “controls.”

[10] = test system: Matricaria inodora (MATIN); experiment: Herbicidal pre-emergence action, test C (Table C7); conditions: dosage 1280 g/ha; visual scoring after about 3 weeks; 100% = plants have died, 0% = like control plants
Description: as §3, with “percentages. For example, 100% activity=the plants have died, 0% activity=like control plants. Tables C1 to C12 below show the effects of selected compounds of the general formula (I) according to Table 1 on various harmful plants and an application rate corresponding to 1280 or 320 g/ha, which were obtained by the experimental procedure mentioned above.” for “percentages.”

Poa annua (POAAN) [11] = experiment: Herbicidal pre-emergence action, test C (Table C3); conditions: dosage 1280 g/ha; visual scoring after about 3 weeks; 100% = plants have died, 0% = like control plants
Description: as §3, with “percentages. For example, 100% activity=the plants have died, 0% activity=like control plants. Tables C1 to C12 below show the effects of selected compounds of the general formula (I) according to Table 1 on various harmful plants and an application rate corresponding to 1280 or 320 g/ha, which were obtained by the experimental procedure mentioned above.” for “percentages.”

Stellaria media (STEME) [12] = experiment: Herbicidal pre-emergence action, test C (Table C8); conditions: visual scoring after about 3 weeks, 100% = plants have died, 0% = like control plants
Description: as §3, with “percentages. For example, 100% activity=the plants have died, 0% activity=like control plants. Tables C1 to C12 below show the effects of selected compounds of the general formula (I) according to Table 1 on various harmful plants and an application rate corresponding to 1280 or 320 g/ha, which were obtained by the experimental procedure mentioned above.” for “percentages.”

[13] = test system: Abutilon theophrasti (ABUTH); experiment: Herbicidal pre-emergence action, test C (Table C5); conditions: visual scoring after about 3 weeks, 100% = plants have died, 0% = like control plants
Description: as §3, with “percentages. For example, 100% activity=the plants have died, 0% activity=like control plants. Tables C1 to C12 below show the effects of selected compounds of the general formula (I) according to Table 1 on various harmful plants and an application rate corresponding to 1280 or 320 g/ha, which were obtained by the experimental procedure mentioned above.” for “percentages.”

[14] = test system: Amaranthus retroflexus (AMARE); experiment: Herbicidal post-emergence action (Table B6); conditions: visual rating about 3 weeks after treatment, 100% = plants have died, 0% = like control plants
Experimental: as §1, with “controls. For example, 100% activity=the plants have died, 0% activity=like control plants. Tables B1 to B12 below show the effects of selected compounds of the general formula (I) according to Table 1 on various harmful plants and an application rate corresponding to 1280 or 320 g/ha, which were obtained by the experimental procedure mentioned above.” for “controls.”

Veronica persica (VERPE) [15] = experiment: Herbicidal post-emergence action (Table B12); conditions: visual rating about 3 weeks after treatment, 100% = plants have died, 0% = like control plants
Experimental: as §1, with “controls. For example, 100% activity=the plants have died, 0% activity=like control plants. Tables B1 to B12 below show the effects of selected compounds of the general formula (I) according to Table 1 on various harmful plants and an application rate corresponding to 1280 or 320 g/ha, which were obtained by the experimental procedure mentioned above.” for “controls.”

[16] = test system: Digitaria sanguinalis (DIGSA); experiment: Herbicidal post-emergence action (Table B10); conditions: dosage 1280 g/ha; visual rating about 3 weeks after treatment; 100% = plants have died, 0% = like control plants
Experimental: as §1, with “controls. For example, 100% activity=the plants have died, 0% activity=like control plants. Tables B1 to B12 below show the effects of selected compounds of the general formula (I) according to Table 1 on various harmful plants and an application rate corresponding to 1280 or 320 g/ha, which were obtained by the experimental procedure mentioned above.” for “controls.”

[17] = test system: Alopecurus myosuroides (ALOMY); experiment: Herbicidal post-emergence action (Table B9); conditions: rated visually after about 3 weeks, 100% = plants have died, 0% = like control plants
Experimental: as §1, with “controls. For example, 100% activity=the plants have died, 0% activity=like control plants. Tables B1 to B12 below show the effects of selected compounds of the general formula (I) according to Table 1 on various harmful plants and an application rate corresponding to 1280 or 320 g/ha, which were obtained by the experimental procedure mentioned above.” for “controls.”

Setaria viridis (SETVI) = experiment: Herbicidal pre-emergence action, test C (Table C4); conditions: dosage 1280 g/ha; visual scoring after about 3 weeks; 100% = plants have died, 0% = like control plants
Description: as §3, with “percentages. For example, 100% activity=the plants have died, 0% activity=like control plants. Tables C1 to C12 below show the effects of selected compounds of the general formula (I) according to Table 1 on various harmful plants and an application rate corresponding to 1280 or 320 g/ha, which were obtained by the experimental procedure mentioned above.” for “percentages.”

Bassia scoparia (KCHSC) = experiment: Herbicidal post-emergence action (Table B11); conditions: dosage 1280 g/ha; visual rating about 3 weeks after treatment; 100% = plants have died, 0% = like control plants
Experimental: as §1, with “controls. For example, 100% activity=the plants have died, 0% activity=like control plants. Tables B1 to B12 below show the effects of selected compounds of the general formula (I) according to Table 1 on various harmful plants and an application rate corresponding to 1280 or 320 g/ha, which were obtained by the experimental procedure mentioned above.” for “controls.”

Compound | herbicidal activity against the harmful plants of Tables B1-B12 in post-emergence treatment [1] | herbicidal activity against the harmful plants of Tables C1-C12 in pre-emergence treatment [2] | Pre-emergence action against Digitaria sanguinalis (DIGSA) [4] [%] | Pre-emergence action against Amaranthus retroflexus (AMARE) [5] [%] | Pre-emergence action against Veronica persica (VERPE) (Veronica persica (VERPE) [6]) [%] | Post-emergence action against Poa annua (POAAN) (Poa annua (POAAN) [7]; 1280 g/ha) [%] | Post-emergence action against Stellaria media (STEME) (Stellaria media (STEME) [8]; dosage 1280 g/ha) [%] | Post-emergence action against Abutilon theophrasti (ABUTH) [9] [%] | Pre-emergence action against Matricaria inodora (MATIN) [10] [%] | Pre-emergence action against Poa annua (POAAN) (Poa annua (POAAN) [11]) [%] | Pre-emergence action against Stellaria media (STEME) (Stellaria media (STEME) [12]; dosage 1280 g/ha) [%] | Post-emergence action against Amaranthus retroflexus (AMARE) ([14]; dosage 1280 g/ha) [%] | Post-emergence action against Veronica persica (VERPE) (Veronica persica (VERPE) [15]; dosage 320 g/ha) [%] | Post-emergence action against Veronica persica (VERPE) (Veronica persica (VERPE) [15]; dosage 1280 g/ha) [%] | other results
Cc1ccnc(-c2ccccc2Oc2ccc(Cl)cn2)c1 [Example 1-81] | very good herbicidal activity | very good herbicidal activity | 100 | 100 | 100 | 90 | 100 | 90 | 90 | 100 | 100 | 100 | 100 | 100 | Pre-emergence action against Alopecurus myosuroides (ALOMY) [3]: 90%; Pre-emergence action against Abutilon theophrasti (ABUTH) ([13]; dosage 320 g/ha): 100%; Pre-emergence action against Abutilon theophrasti (ABUTH) ([13]; dosage 1280 g/ha): 100%
CCc1ccc(Oc2cccc(CC)c2-c2cc(C(F)F)no2)nc1 [Example 1-60] | very good herbicidal activity | very good herbicidal activity | 100 | 100 | 100 | 100 | 100 | 90 | 100 | 100 | 100 | 100 | 100 | 100 | Post-emergence action against Digitaria sanguinalis (DIGSA) [16]: 100%; Post-emergence action against Alopecurus myosuroides (ALOMY) ([17]; 320 g/ha): 100%; Post-emergence action against Alopecurus myosuroides (ALOMY) ([17]; 1280 g/ha): 100%; Post-emergence action against Poa annua (POAAN) (Poa annua (POAAN) [7]; 320 g/ha): 90%; Post-emergence action against Stellaria media (STEME) (Stellaria media (STEME) [8]; dosage 320 g/ha): 100%; Pre-emergence action against Stellaria media (STEME) (Stellaria media (STEME) [12]; dosage 320 g/ha): 100%; Pre-emergence action against Setaria viridis (SETVI) (Setaria viridis (SETVI)): 100%; Post-emergence action against Amaranthus retroflexus (AMARE) ([14]; dosage 320 g/ha): 100%; Post-emergence action against Bassia scoparia (KCHSC) (Bassia scoparia (KCHSC)): 100%
